Assay results published in US8309068B2, “Isolated polypeptides and methods of improving muscle strength” (Myostin Therapeutics Pty Ltd., priority 2006, dated 2012).
Entries after “also recorded” stand apart in the source; their conditions may differ. Where no end group is shown, it is not given here.

Assays:
[1] = system: C57B mice injected with Dexamethasone; assay: In vivo cachexia trial (Dexamethasone-induced)
Method: A study of chronic cachexia was designed whereby C57B mice, 4 weeks of age, were injected with the glucocorticoid drug Dexamethasone daily at a concentration of 1 mg/kg body weight. Three treatment groups were designed: 5 mice receiving daily injections of saline, 5 mice receiving daily injections of Dexamethasone and 5 mice receiving daily injections of Dexamethasone plus 300 antagonist at a concentration of 6μg/g body weight. Body weight of the mice was recorded daily and monitored closely for signs of cachexia. Food and water consumption was recorded to ensure that loss in body weight was not due to a loss of appetite or thirst. Body weights, fat-pad weights, and MyoD and Pax7 expression were assessed.

C2C12 myoblasts = assay: C2C12 myoblast proliferation assay (methylene blue endpoint); type: cell-based, murine; conditions: for proliferation capacity of myoblasts compared to control: 1 μg/ml or 5 μg/ml over 48 or 72 hours; for concentration at which the highest myoblast proliferation rate was observed: 48 hour time point
Method: A polypeptide of the invention, or a fragment, variant or derivative thereof has the biological function of antagonising myostatin activity. To determine whether a polypeptide of the invention, or a fragment, variant or derivative thereof, is able to antagonise myostatin activity, such activity can be tested by growing myoblasts in the presence or absence (control) of a candidate polypeptide of the invention. […]
(§1) The myoblast proliferation assay was carried out in uncoated 96-well microtitre plates. C2C12 cultures were seeded at 1000 cells/well. Following a 16-hour attachment period, test media containing either recombinant wild type myostatin or different myostatin antagonists were added and cells were incubated for a further 48 or 72 hour period. For competition assay, wild type myostatin was competed with different concentrations of myostatin antagonists prior to the addition into the media. After the incubation period, proliferation was assessed using methylene blue photometric endpoint assay as previously described (Thomas et al, 2000).

myostatin [2] = assay: Myoblast chemotaxis assay, recovery of myostatin chemo-inhibition by antagonists; type: cell-based
Method: Primary myoblasts were cultured from the hind limb muscle of young (4 to 6 week old) or old (24 month old) mice, according to the published protocols (Allen et al., 1997; Partridge, 1997). Briefly, muscles were minced, and digested in 0.2% collagenase type 1A for 90 min. Cultures were enriched for myoblasts by pre-plating on uncoated plates for 3 hours. Myoblast cultures were maintained in growth media (GM) supplemented with 20% fetal calf serum (FCS), 10% HS and 1% CEE on 10% Matrigel coated plates, at 37° C./5% CO2. The extent of culture purity was assessed by flow cytometry analysis of MyoD expression after 48 hours in culture. Cells were harvested using trypsin, suspended at a concentration of 10^6 cells/200 μl and fixed overnight in 5 ml 70% ethanol at −20° C. Staining was performed for 30 min at room temperature using rabbit polyclonal anti-MyoD, 1:200 (Santa Cruz), followed by Alexa fluor 488 anti-rabbit conjugate, 1:500 (Molecular Probes). Analysis was carried out in duplicate with 10^4 cell events collected in each assay. Debris was excluded by gating on forward and side scatter profiles. Cells were analyzed by FACScan (Becton Dickinson). Macrophages were isolated by a peritoneal lavage technique and/or derived from bone marrow Zymosan-activated mouse serum (ZAMS) was prepared according to the published protocol (Colditz and Movat, 1984).
For the chemotaxis assay of myoblasts, a first assay was carried out on myoblasts from 2 year old mice as follows. DMEM containing 2% horse serum (HS), 5% chicken embryo extract (CEE) plus dialysis buffer was used as positive control. […] Plain DMEM was used as negative control. On a 24-well plate, the bottom wells were filled with test or control media. Seventy-five thousand cells were added to the top wells containing polyethylene terephthalate (PET) 0.8 μm membranes coated with 1% Matrigel. The plate was incubated for 7 h at 37° C., 5% CO2. […] The membrane was then fixed, stained in Gill's hematoxylin and wet mounted on slides. Migrated cells were counted on four representative fields per membrane and the average number plotted. The results are shown in FIG. 6 (myoblast migration from old mice) and FIG. 7 (myoblast migration from young mice).

myostatin [3] = assay: C2C12 myoblast proliferation competition assay: wild type myostatin competed with antagonists; type: cell-based; conditions: antagonist 1, 5 and 10 μg/ml; myostatin 2.25 μg/ml
Method: as §1, with “[…] C2C12 myoblasts were grown in Dulbecco's modified eagle medium according to the standard techniques (Thomas et al, 2000). The” for “The”

satellite cells = assay: Single muscle fibre satellite cell activation assay (PCNA labeling); type: cell-based, mice; conditions: single fibres from old (2 year old) mice; 5 μg/ml; 24 or 48 hours
Method: Single fibres were isolated as previously described Rosenblatt et al., (1995). Briefly, 1 and 24 month old wild-type mice were euthanized by CO2 gas followed by cervical dislocation. TA were dissected out and digested in 0.2% (w/v) type 1A collagenase (>260 CDU/mg, Sigma) in Dulbecco's modified Eagle medium (DMEM) (Invitrogen) for 60 minutes at 37° C. Muscles were transferred to DMEM +10% horse serum (HS) +0.5% chicken embryo extract (CEE) and fibres were separated by gentle trituration. Isolated fibres were transferred to 4 well chamber slides (Becton Dickinson) coated with 10% matrigel (Becton Dickinson) and fixed with 100% ice cold methanol for 10 minutes after culturing up to 72 hours at 37° C. in 5% CO2.
Proliferating Cell Nuclear Antigen (PCNA) is expressed in cells that are actively undergoing cell cycle but not in quiescent cells. […] However, upon activation, satellite cells are activated to express PCNA and regenerate the muscle by replenishing the muscle fibres. Thus PCNA is a very reliable antigen to marker for the activated satellite cells.
In order to determine the effect of myostatin antagonists on satellite cell activation, single muscle fibres from TA muscle of young (1 month) or old (24 month) wild type mice were cultured in presence of 5 μg/ml of myostatin antagonist 320, 310 or 300, in culture media for 24, 48 and 72 hours and fixed with methanol and washed in PBS. The fixed fibres were permeabilised in 0.5% TritonX-100 in PBS for 10 minutes, blocked in 10% normal goat serum and 0.35% carrageenan lambda in PBS for 30 minutes at room temperature then incubated with a 1:100 dilution of anti-PCNA antibody in blocker overnight. Primary antibody was detected using goat anti-mouse-alexa fluor 546 and fibres were counterstained with DAPI. PCNA positive activated satellite cells were counted under microscope and expressed as a percent of total myonuclei.

primary ovine myoblasts = assay: Ovine myoblast proliferation assay; type: cell-based; conditions: 1, 5 or 10 μg/ml; 48 hours
Method: (§2) Human skeletal muscle myoblasts (Cambrex, USA) or primary ovine myoblasts were grown in Dulbecco's Modified Eagle Medium containing 20% FBS, 10% Horse serum and 0.5% chicken embryo extract according to the standard techniques. The myoblast proliferation assay was carried out in uncoated 96-well microtitre plates. Cell cultures were seeded at 2000 cells/well. Following a 24-hour attachment period, test media supplemented with 5% FCS containing either buffer as a control or different myostatin antagonists (300, 310 or 320) were added at 1, 5 and 10 μg/ml and cells were incubated for a further 144 hour period (for human cells) or 48 hours (for ovine cells). After the incubation period, proliferation was assessed using methylene blue photometric endpoint assay as previously described (Thomas et al, 2000).

[4] = system: Human skeletal muscle myoblasts; assay: Human myoblast proliferation assay; type: cell-based; conditions: 1, 5 or 10 μg/ml; 144 hours
Method: as §2

[5] = Dexamethasone, right gastrocnemius, p<0.05
[6] = myoblasts from old (2 year old) mice, antagonist added at 5 μg/ml, myostatin 2.5 μg/ml

Molecule | proliferation capacity of myoblasts compared to control (C2C12 myoblasts) | rescue of chemo-inhibiting effects of myostatin on myoblast migration (myostatin [2]; [6]) | concentration at which the highest myoblast proliferation rate was observed (C2C12 myoblasts) [µg/mL] | rescue of the proliferation-inhibiting effects of myostatin on myoblasts (myostatin [3]) | percentage of activated satellite cells (satellite cells) | proliferation capacity of ovine myoblasts compared to control (primary ovine myoblasts) | proliferation capacity of human myoblasts compared to control [4] | also measured
C[C@@H]1C[C@H]2[C@@H]3CCC4=CC(=O)C=C[C@]4(C)[C@@]3(F)[C@@H](O)C[C@]2(C)[C@@]1(O)C(=O)CO [Dexamethasone, reference compound] |  |  |  |  |  |  |  | average body weight compared with saline injected controls ([1]; Dexamethasone 1 mg/kg daily, 22 days): reduction in average body weight; increase in left retroperitoneal fat-pad weight compared to saline ([1]; Dexamethasone only): 62.9%; increase in right retroperitoneal fat-pad weight compared to saline ([1]; Dexamethasone only): 60.4%; left and right retroperitoneal and inguinal fat-pad weights compared to saline ([1]; Dexamethasone only, p<0.05): statistically significant increases; MyoD expression (Western blot) [1, 5]: significant down-regulation; Pax7 expression (Western blot) [1, 5]: significant down-regulation
myostatin antagonist 280: recombinant peptide, amino acids 267-280 of bovine myostatin, with tags; contains only one cysteine residue; inactive comparison (DFGLDCDEHSTESR; also: with tags; UniProt O18836 267-280, looked up, fragment) | did not show activity above the control |  |  |  |  |  |  | biological (myostatin antagonist) activity of the peptide (C2C12 myoblasts; listed as 280): appears to be inactive; also recorded: not biologically active
myostatin antagonist 310: recombinant peptide, amino acids 267-310 of bovine myostatin, with N terminal and C terminal tag (SEQ ID NO: 5) (DFGLDCDEHSTESRCCRYPLTVDFEAFGWDWIIAPKRYKANYCS; cysteine pairing not given here; also: N- and C-terminal tags; listed as Homo sapiens) | significantly enhanced | rescued to levels similar to those observed in the control | 5 | rescued to levels similar to those observed in the positive control | Significant increases | significantly enhanced | significantly enhanced | rescue of chemo-inhibiting effects of myostatin on myoblast migration (myostatin [2]; myoblasts from young (1 month old) mice): rescued the migration of myostatin cells to control levels
myostatin antagonist 320: recombinant peptide, amino acids 267-320 of bovine myostatin, with N terminal and C terminal tag (SEQ ID NO: 4) (DFGLDCDEHSTESRCCRYPLTVDFEAFGWDWIIAPKRYKANYCSGECEFVFLQK; cysteine pairing not given here; also: N- and C-terminal tags; listed as Homo sapiens) | significantly enhanced | rescued to levels similar to those observed in the control | 5 | rescued to levels similar to those observed in the positive control | Significant increases | significantly enhanced | significantly enhanced | 
myostatin antagonist 329: recombinant peptide, amino acids 267-329 of bovine myostatin, with N terminal and C terminal tag (SEQ ID NO: 3) (protein, listed as Homo sapiens, N- and C-terminal tags) DFGLDCDEHSTESRCCRYPLTVDFEAFGWDWIIAPKRYKANYCSGECEFVFLQKYPHTHLVHQ | significantly enhanced |  | 10 |  |  |  |  | 
